Test [1] deals with T1, Mouse urotensin (mUR2) (Mus musculus, UniProt Q8VIH9).
T1 construct: purchased Perkin Elmer Biosignal
T1 sequence (Q8VIH9 1-385): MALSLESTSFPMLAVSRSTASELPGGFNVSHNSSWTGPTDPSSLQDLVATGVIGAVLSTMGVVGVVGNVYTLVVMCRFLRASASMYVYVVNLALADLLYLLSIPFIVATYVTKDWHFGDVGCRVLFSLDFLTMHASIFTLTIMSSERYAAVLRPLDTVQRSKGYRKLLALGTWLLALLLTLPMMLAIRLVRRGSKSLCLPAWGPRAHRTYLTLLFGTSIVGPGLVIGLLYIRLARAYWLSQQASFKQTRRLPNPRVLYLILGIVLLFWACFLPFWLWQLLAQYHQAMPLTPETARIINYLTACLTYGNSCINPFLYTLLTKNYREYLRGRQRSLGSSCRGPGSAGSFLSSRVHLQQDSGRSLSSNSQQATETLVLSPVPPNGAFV
Nature of the test: Radioligand binding, mouse urotensin mUR2 membranes, FlashPlate, [125I]-Urotensin II. The conditions noted are these: compound at 10 μM, [125I]-Urotensin II. The method in brief:
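Cloned mouse urotensin (mUR2) receptor membranes from Perkin Elmer Biosignal were immobilized in FlashPlate microplates using a proprietary coating. Each well got 19.5 μl buffer, then 0.5 μl of DMSO, reference ligand, or compound. Adding 5 μl of [125I]-Urotensin II, diluted to 5× final concentration in binding buffer, started binding. Plates were sealed with TopSeal-A and incubated 1 hour at room temperature in the dark. Wells were counted for 30 seconds each on a TopCount after a 60-second delay, and percentage inhibition was calculated.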

Test [2] deals with T2, Human κ-Opioid (KOP) (Homo sapiens, UniProt P41145).
T2 construct: purchased Perkin Elmer Biosignal
Nature of the test: Radioligand binding, human κ-opioid (KOP) membranes, filtration, [3H]-Diprenorphine. The conditions noted are these: compound at 10 μM, [3H]-Diprenorphine. Put shortly: (§1)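 Percent inhibition of radioligand binding measured on recombinant human membranes: NK1 with [125I]-Substance P, KOP with [3H]-Diprenorphine. Incubation 1 h at room temperature, then harvest onto 0.3% PEI-soaked filters, cold Tris-HCl pH 7.4 washes and scintillation counting; non-specific binding from reference ligand wells.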

Test [3] has as its target T3, Human opioid (ORL1) (Homo sapiens, UniProt P41146).
T3 construct: purchased Perkin Elmer Biosignal
Put plainly: Radioligand binding, human opioid ORL1 membranes, FlashPlate, [125I]-Nociceptin. The conditions noted are these: compound at 10 μM, [125I]-Nociceptin. The method in brief:
(§2)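 Cloned human receptor membranes were coated onto FlashPlate wells and incubated with radioligand and compound (added from a 0.5 mM DMSO daughter plate) for 1 hour at room temperature in the dark. Scintillation counting gave percent inhibition, with DMSO defining total and reference ligand defining non-specific binding.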

Test [4] has as its target T4, Human Melanocortin (MC4) (Homo sapiens, UniProt P32245).
T4 construct: purchased Perkin Elmer Biosignal
Put plainly: Radioligand binding, human melanocortin MC4 membranes, FlashPlate, [125I]-NDP-αMSH. Conditions: compound at 10 μM, [125I]-NDP-αMSH. Put shortly: as §2

The target of test [5] is T5, Human δ-opioid (DOP) (Homo sapiens, UniProt P41143).
T5 construct: purchased Perkin Elmer Biosignal
Put plainly: Radioligand binding, human δ-opioid (DOP) membranes, FlashPlate, [3H]-Bremazocine. Conditions: compound at 10 μM, [3H]-Bremazocine. Put shortly:
as §2

Test [6] concerns the target T6, Human Melanocortin (MC3) (Homo sapiens, UniProt P41968).
T6 construct: purchased Perkin Elmer Biosignal
Nature of the test: Radioligand binding, human melanocortin MC3 membranes, FlashPlate, [125I]-NDP-αMSH. The conditions noted are these: compound at 10 μM, [125I]-NDP-αMSH. Put shortly:
as §2

Test [7] addresses T7, Human neuropeptide Y (NPY-Y1) (Homo sapiens, UniProt P25929).
T7 construct: purchased Perkin Elmer Biosignal
T7 sequence (P25929 1-384): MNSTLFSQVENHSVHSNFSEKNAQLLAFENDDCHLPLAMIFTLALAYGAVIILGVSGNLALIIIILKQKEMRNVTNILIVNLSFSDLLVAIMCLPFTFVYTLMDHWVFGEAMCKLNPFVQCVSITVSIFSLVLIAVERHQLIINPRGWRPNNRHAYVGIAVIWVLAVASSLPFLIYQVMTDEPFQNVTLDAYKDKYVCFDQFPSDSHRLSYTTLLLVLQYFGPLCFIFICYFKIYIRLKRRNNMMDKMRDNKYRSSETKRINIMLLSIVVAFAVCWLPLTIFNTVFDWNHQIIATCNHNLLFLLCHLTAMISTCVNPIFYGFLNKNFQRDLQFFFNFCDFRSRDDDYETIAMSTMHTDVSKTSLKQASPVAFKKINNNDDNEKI
Nature of the test: Radioligand binding, human neuropeptide Y NPY-Y1 membranes, FlashPlate, [125I]-PYY. Conditions: compound at 10 μM, [125I]-PYY. The method in brief: as §2

For test [8], the target named is T8, Human melanocortin (MC5) (Homo sapiens, UniProt P33032).
T8 construct: purchased Perkin Elmer Biosignal
Put plainly: Radioligand binding, human melanocortin MC5 membranes, FlashPlate, [125I]-NDP-αMSH. The conditions noted are these: compound at 10 μM, [125I]-NDP-αMSH. The method in brief:
as §2

Test [9] deals with T9, Human melanin-concentrating hormone (MCH1) (Homo sapiens, UniProt Q99705).
T9 construct: purchased Perkin Elmer Biosignal
Nature of the test: Radioligand binding, human melanin-concentrating hormone MCH1 membranes, FlashPlate, [125I]-S36057. The conditions noted are these: compound at 10 μM; for A6 radioligand binding, percentage inhibition: [125I]-S36057. Put shortly: as §2

Test [10] deals with T10, Human μ-opioid (MOP) (Homo sapiens, UniProt P35372).
T10 construct: purchased Perkin Elmer Biosignal
Nature of the test: Radioligand binding, human μ-opioid (MOP) membranes, FlashPlate, [3H]-Naloxone. The conditions noted are these: compound at 10 μM, [3H]-Naloxone. Put shortly: as §2

The target of test [11] is T11, Human neurokinin (NK1) (Homo sapiens, UniProt P25103).
T11 construct: purchased Perkin Elmer Biosignal
Put plainly: Radioligand binding, human neurokinin NK1 membranes, filtration, [125I]-Substance P. Conditions: compound at 10 μM, [125I]-Substance P. The method in brief: as §1

T3 sequence (P41146 whole entry): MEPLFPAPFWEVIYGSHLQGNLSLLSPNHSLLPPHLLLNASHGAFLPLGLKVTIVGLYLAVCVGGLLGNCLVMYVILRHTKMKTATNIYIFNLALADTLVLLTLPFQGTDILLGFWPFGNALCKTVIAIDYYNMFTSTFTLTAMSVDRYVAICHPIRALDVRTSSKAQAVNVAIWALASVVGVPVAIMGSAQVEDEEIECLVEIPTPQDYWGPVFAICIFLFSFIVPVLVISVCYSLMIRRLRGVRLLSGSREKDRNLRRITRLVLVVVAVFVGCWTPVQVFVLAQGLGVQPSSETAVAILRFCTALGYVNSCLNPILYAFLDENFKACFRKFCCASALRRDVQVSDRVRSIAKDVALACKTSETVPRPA
T11 sequence (P25103 whole entry): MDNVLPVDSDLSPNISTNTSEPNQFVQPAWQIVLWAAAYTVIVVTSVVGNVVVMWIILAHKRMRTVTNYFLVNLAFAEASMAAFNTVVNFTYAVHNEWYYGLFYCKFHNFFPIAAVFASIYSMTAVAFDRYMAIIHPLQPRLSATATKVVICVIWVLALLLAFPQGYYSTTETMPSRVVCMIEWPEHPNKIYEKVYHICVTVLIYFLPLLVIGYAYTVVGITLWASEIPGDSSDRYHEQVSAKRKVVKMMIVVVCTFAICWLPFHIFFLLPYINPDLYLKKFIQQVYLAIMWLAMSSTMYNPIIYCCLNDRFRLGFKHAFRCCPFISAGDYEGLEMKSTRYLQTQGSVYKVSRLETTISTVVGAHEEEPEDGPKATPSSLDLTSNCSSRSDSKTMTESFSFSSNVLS
T4 sequence (P32245 whole entry): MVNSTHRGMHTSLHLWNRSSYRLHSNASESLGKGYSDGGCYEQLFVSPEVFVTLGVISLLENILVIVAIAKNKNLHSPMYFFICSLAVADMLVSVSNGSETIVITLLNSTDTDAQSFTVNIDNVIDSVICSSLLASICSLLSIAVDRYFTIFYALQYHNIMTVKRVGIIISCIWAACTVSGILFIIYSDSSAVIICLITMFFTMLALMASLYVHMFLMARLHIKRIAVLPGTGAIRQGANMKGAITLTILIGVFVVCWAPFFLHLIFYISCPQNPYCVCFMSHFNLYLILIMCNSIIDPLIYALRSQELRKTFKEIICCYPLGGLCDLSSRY
T5 sequence (P41143 whole entry): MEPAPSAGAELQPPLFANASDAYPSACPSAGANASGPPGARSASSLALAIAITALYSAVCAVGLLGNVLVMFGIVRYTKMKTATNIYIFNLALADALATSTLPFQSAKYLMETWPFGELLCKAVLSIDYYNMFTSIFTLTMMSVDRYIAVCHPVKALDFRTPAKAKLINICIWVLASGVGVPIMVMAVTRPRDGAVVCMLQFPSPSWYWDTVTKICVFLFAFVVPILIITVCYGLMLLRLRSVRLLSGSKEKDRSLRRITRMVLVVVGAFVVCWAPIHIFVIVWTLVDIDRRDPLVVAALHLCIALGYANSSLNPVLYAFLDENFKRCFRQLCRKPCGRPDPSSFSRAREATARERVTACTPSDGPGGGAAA
T9 sequence (Q99705 whole entry): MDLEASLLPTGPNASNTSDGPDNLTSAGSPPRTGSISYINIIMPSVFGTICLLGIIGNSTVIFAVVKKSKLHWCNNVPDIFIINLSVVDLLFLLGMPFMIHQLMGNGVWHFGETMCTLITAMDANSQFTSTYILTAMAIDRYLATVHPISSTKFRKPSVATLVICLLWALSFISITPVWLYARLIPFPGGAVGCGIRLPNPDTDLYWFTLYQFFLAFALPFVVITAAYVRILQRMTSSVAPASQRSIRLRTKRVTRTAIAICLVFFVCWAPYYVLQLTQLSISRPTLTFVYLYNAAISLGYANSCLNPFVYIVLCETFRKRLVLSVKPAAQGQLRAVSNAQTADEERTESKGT
T8 sequence (P33032 whole entry): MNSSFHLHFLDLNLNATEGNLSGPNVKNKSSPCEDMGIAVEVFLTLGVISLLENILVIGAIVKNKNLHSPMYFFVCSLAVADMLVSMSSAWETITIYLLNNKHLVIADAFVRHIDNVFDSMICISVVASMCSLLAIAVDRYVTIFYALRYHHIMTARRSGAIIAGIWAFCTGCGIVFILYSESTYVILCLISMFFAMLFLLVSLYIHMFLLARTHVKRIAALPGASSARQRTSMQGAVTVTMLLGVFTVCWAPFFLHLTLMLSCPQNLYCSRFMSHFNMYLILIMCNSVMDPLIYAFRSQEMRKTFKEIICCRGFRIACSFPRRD
T10 sequence (P35372 whole entry): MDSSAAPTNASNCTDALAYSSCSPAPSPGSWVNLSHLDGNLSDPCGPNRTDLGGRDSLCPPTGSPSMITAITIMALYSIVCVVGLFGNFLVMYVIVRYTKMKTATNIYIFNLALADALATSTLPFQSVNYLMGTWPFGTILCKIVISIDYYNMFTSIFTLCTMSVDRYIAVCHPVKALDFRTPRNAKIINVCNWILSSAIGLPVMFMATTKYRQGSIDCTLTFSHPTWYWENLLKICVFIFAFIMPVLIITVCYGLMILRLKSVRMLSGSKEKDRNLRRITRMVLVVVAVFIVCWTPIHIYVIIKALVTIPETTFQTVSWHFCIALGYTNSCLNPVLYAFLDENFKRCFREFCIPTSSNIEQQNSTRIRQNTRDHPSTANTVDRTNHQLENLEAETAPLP
T2 sequence (P41145 whole entry): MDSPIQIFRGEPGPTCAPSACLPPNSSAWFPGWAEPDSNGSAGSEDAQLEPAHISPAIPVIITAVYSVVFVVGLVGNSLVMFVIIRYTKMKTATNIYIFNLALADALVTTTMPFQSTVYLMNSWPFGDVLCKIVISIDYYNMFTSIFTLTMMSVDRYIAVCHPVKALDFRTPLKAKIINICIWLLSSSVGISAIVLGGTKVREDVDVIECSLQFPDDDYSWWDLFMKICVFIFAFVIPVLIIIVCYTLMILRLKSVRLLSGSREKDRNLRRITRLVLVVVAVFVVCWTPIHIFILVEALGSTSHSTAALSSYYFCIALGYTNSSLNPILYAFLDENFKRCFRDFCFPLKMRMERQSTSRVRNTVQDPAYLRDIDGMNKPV
T6 sequence (P41968 whole entry): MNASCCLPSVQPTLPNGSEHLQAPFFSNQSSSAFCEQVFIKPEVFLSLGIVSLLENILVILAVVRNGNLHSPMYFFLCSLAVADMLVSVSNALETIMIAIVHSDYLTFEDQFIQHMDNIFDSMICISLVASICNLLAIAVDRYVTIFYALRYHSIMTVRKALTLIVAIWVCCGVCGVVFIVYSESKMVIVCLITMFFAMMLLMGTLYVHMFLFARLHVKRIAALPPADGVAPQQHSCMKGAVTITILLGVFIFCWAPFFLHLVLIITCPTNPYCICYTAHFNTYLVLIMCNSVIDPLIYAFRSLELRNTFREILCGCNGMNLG

Regarding `COCC1OC(OCc2ccccc2)C(NC(=O)CCN)C(OCc2ccc(-c3ccccc3)cc2)C1O` (stereo not shown) [compound 184], the “A11 radioligand binding, percentage inhibition” value in test [1] was “− (“−” indicates less than 50% inhibition at 10 μM)”. The “A2 radioligand binding, percentage inhibition” value in [2] is given as “− (“−” indicates less than 50% inhibition at 10 μM)”. Further, the “A10 radioligand binding, percentage inhibition” value in test [3] is on record as “− (“−” indicates less than 50% inhibition at 10 μM)”. In addition, in test [4], the “A4 radioligand binding, percentage inhibition” value is “− (“−” indicates less than 50% inhibition at 10 μM)”. The “A1 radioligand binding, percentage inhibition” value in test [5] is “− (“−” indicates less than 50% inhibition at 10 μM)”. Besides, the “A3 radioligand binding, percentage inhibition” value in test [6] was “− (“−” indicates less than 50% inhibition at 10 μM)”. The “A9 radioligand binding, percentage inhibition” value in test [7] was “− (“−” indicates less than 50% inhibition at 10 μM)”. Further, the “A5 radioligand binding, percentage inhibition” value in [8] is recorded as “+ (“+” indicates greater than 50% inhibition at 10 μM)”. In [9], the “A6 radioligand binding, percentage inhibition” value is recorded as “− (“−” indicates less than 50% inhibition at 10 μM)”. Moreover, in [10], the “A7 radioligand binding, percentage inhibition” value was “− (“−” indicates less than 50% inhibition at 10 μM)”. The “A8 radioligand binding, percentage inhibition” value in test [11] was “+ (“+” indicates greater than 50% inhibition at 10 μM)”.

With `COCC1OC(OCc2ccccc2)C(NC(=O)CCNC(=N)N)C(OCc2ccc(-c3ccccc3)cc2)C1O` (stereo not shown) [compound 185], in [1], the “A11 radioligand binding, percentage inhibition” value was “− (“−” indicates less than 50% inhibition at 10 μM)”. The “A2 radioligand binding, percentage inhibition” value in test [2] was “− (“−” indicates less than 50% inhibition at 10 μM)”. Further, the “A10 radioligand binding, percentage inhibition” value in [3] is recorded as “− (“−” indicates less than 50% inhibition at 10 μM)”. Besides, the “A4 radioligand binding, percentage inhibition” value in test [4] is on record as “+ (“+” indicates greater than 50% inhibition at 10 μM)”. Besides, the “A1 radioligand binding, percentage inhibition” value in [5] is “− (“−” indicates less than 50% inhibition at 10 μM)”. Also, the “A3 radioligand binding, percentage inhibition” value in test [6] is listed as “− (“−” indicates less than 50% inhibition at 10 μM)”. The “A9 radioligand binding, percentage inhibition” value in test [7] is “− (“−” indicates less than 50% inhibition at 10 μM)”. In addition, the “A5 radioligand binding, percentage inhibition” value in [8] is on record as “+ (“+” indicates greater than 50% inhibition at 10 μM)”. In test [9], the “A6 radioligand binding, percentage inhibition” value is reported as “+ (“+” indicates greater than 50% inhibition at 10 μM)”. In addition, in [10], the “A7 radioligand binding, percentage inhibition” value was “− (“−” indicates less than 50% inhibition at 10 μM)”. For the same compound, the “A8 radioligand binding, percentage inhibition” value in test [11] is given as “+ (“+” indicates greater than 50% inhibition at 10 μM)”.

As for `COCC1OC(OCc2ccccc2)C(NC(=O)CCCN)C(OCc2ccc(-c3ccccc3)cc2)C1O` (stereo not shown) [compound 186], the “A11 radioligand binding, percentage inhibition” value in [1] is given as “− (“−” indicates less than 50% inhibition at 10 μM)”. The “A2 radioligand binding, percentage inhibition” value in [2] is given as “− (“−” indicates less than 50% inhibition at 10 μM)”. In test [3], the “A10 radioligand binding, percentage inhibition” value was “− (“−” indicates less than 50% inhibition at 10 μM)”. Besides, the “A4 radioligand binding, percentage inhibition” value in test [4] is reported as “− (“−” indicates less than 50% inhibition at 10 μM)”. For the same compound, the “A1 radioligand binding, percentage inhibition” value in [5] is listed as “− (“−” indicates less than 50% inhibition at 10 μM)”. In addition, the “A3 radioligand binding, percentage inhibition” value in test [6] is “− (“−” indicates less than 50% inhibition at 10 μM)”. Further, the “A9 radioligand binding, percentage inhibition” value in test [7] was “− (“−” indicates less than 50% inhibition at 10 μM)”. Moreover, the “A5 radioligand binding, percentage inhibition” value in test [8] is “+ (“+” indicates greater than 50% inhibition at 10 μM)”. In [9], the “A6 radioligand binding, percentage inhibition” value is given as “− (“−” indicates less than 50% inhibition at 10 μM)”. Besides, in test [10], the “A7 radioligand binding, percentage inhibition” value is “− (“−” indicates less than 50% inhibition at 10 μM)”. The “A8 radioligand binding, percentage inhibition” value in [11] was “+ (“+” indicates greater than 50% inhibition at 10 μM)”.

As to `COCC1OC(OCc2ccccc2)C(NC(=O)CCCNC(=N)N)C(OCc2ccc(-c3ccccc3)cc2)C1O` (stereo not shown) [compound 187], the “A11 radioligand binding, percentage inhibition” value in test [1] is reported as “− (“−” indicates less than 50% inhibition at 10 μM)”. The “A2 radioligand binding, percentage inhibition” value in test [2] was “− (“−” indicates less than 50% inhibition at 10 μM)”. In test [3], the “A10 radioligand binding, percentage inhibition” value is listed as “− (“−” indicates less than 50% inhibition at 10 μM)”. For the same compound, the “A4 radioligand binding, percentage inhibition” value in test [4] was “+ (“+” indicates greater than 50% inhibition at 10 μM)”. In addition, the “A1 radioligand binding, percentage inhibition” value in [5] is given as “− (“−” indicates less than 50% inhibition at 10 μM)”. The “A3 radioligand binding, percentage inhibition” value in test [6] is “− (“−” indicates less than 50% inhibition at 10 μM)”. Also, the “A9 radioligand binding, percentage inhibition” value in test [7] is recorded as “− (“−” indicates less than 50% inhibition at 10 μM)”. Further, in test [8], the “A5 radioligand binding, percentage inhibition” value is on record as “+ (“+” indicates greater than 50% inhibition at 10 μM)”. The “A6 radioligand binding, percentage inhibition” value in test [9] is on record as “+ (“+” indicates greater than 50% inhibition at 10 μM)”. For the same compound, the “A7 radioligand binding, percentage inhibition” value in [10] is on record as “− (“−” indicates less than 50% inhibition at 10 μM)”. In [11], the “A8 radioligand binding, percentage inhibition” value is reported as “+ (“+” indicates greater than 50% inhibition at 10 μM)”.

For the compound `COCC1OC(OCc2ccccc2)C(NC(=O)CN)C(OCc2ccc3ccccc3c2)C1O` (stereo not shown) [compound 188], the “A11: inhibition of radioligand binding” value in test [1] (FlashPlate) is on record as “− (“−” indicates less than 50% inhibition at 10 μM)”. The “A2: inhibition of radioligand binding” value in [2] (filtration) is listed as “− (“−” indicates less than 50% inhibition at 10 μM)”. In addition, the “A10: inhibition of radioligand binding” value in test [3] (FlashPlate) is listed as “− (“−” indicates less than 50% inhibition at 10 μM)”. Besides, the “A4: inhibition of radioligand binding” value in [4] (FlashPlate) was “− (“−” indicates less than 50% inhibition at 10 μM)”. Besides, the “A1: inhibition of radioligand binding” value in test [5] (FlashPlate) is “− (“−” indicates less than 50% inhibition at 10 μM)”. For the same compound, the “A3: inhibition of radioligand binding” value in test [6] (FlashPlate) is reported as “− (“−” indicates less than 50% inhibition at 10 μM)”. Besides, in [7] (FlashPlate), the “A9: inhibition of radioligand binding” value is on record as “− (“−” indicates less than 50% inhibition at 10 μM)”. In test [8] (FlashPlate), the “A5: inhibition of radioligand binding” value was “− (“−” indicates less than 50% inhibition at 10 μM)”. Further, in test [9] ([125I]-S36057, FlashPlate), the “A6: inhibition of radioligand binding” value is on record as “− (“−” indicates less than 50% inhibition at 10 μM)”. In [10] (FlashPlate), the “A7: inhibition of radioligand binding” value is listed as “− (“−” indicates less than 50% inhibition at 10 μM)”. Besides, the “A8: inhibition of radioligand binding” value in [11] (filtration) is given as “+ (“+” indicates greater than 50% inhibition at 10 μM)”.
